{
  "source": "patent US20250032580A1",
  "about": "“USE OF ADNF POLYPEPTIDES IN THERAPY” (RAMOT AT TEL-AVIV UNIVERSITY LTD., priority 2021, published 2025)",
  "key": {"[1]": {"tested_on": "Tyr mice", "test": "Behavioral assessments (odor discrimination and others)", "type": "in vivo, mouse", "parameters": "key to NAP efficacy: cognitive impairments, behavioral deficits: corrections by NAP treatment (+)", "method": "Animals—Animals were housed under a 12-hour light/dark cycle, with food and water ad-libitum. Mouse pups were subcutaneously administrated with NAP [having an amino acid sequence NAPVSIPQ (SEQ ID NO: 2), 25 μg NAP/1 ml saline] as described (8, 12). At 21 days of age mice were administered daily intranasal NAP in vehicle solution (“DD”—7.5 mg/ml of NaCl, 1.7 mg/ml of citric acid, 3 mg/ml of disodium phosphate dihydrate, and 0.2 mg/ml of 50% benzalkonium chloride solution) (0.5 μg NAP/5p1 DD) (8, 9, 12, and U.S. Pat. No. 10,912,819 to Gozes). These mice continued to behavioral analysis as described hereinbelow. The noninvasive intranasal route was chosen as these experiments required daily handling and administration. Age (weeks) of mice during behavioral experiments (mean±SEM) was as follows: Catwalk-9.23±0.15, grooming-10±0.15, social approach-10.5±0.12, odor-discrimination-12.12±0.13, hanging-wire-13±0.14, hotplate-13.18±0.13. Group size was determined following previous experiments (12). Pups were randomly allocated to either the NAP or DD group according to sex and genotype. […]\nNovel object recognition: Briefly, the open field test was used for the first day of habituation since both tests are conducted in the same arena. […] The time spent sniffing/touching each object was measured using the EthoVision XT video tracking system and software (Noldus Inc. Leesburg, VA). Data were analyzed using the discrimination capacity formula: D2=(b−a)/(a+b), where ‘a’ designated the time of exploration of the familiar object and ‘b’ designated the time of exploration of the novel object.\nSocial approach: A plexiglas box was divided into three adjacent chambers, each 20 cm (length)×40.5 cm (width)×22 cm (height), separated by two removable doors. […] The next day, each subject mouse was tested in an experiment with three phases, (measured with a simple timer): I and II (5 minutes long), the habituation phases (ensuring no bias), and III (10 minutes long), the experimental phase. […]"}, "[2]": {"tested_on": "Tyr mice", "test": "Fecal microbiota real-time PCR loads", "type": "in vivo, mouse", "parameters": "key to NAP efficacy: microbiota: corrections by NAP treatment (+)", "method": "Microbiome—Fecal samples were collected from 12.2±0.19-week-old mice. Samples were prepared and analyzed as previously described (57). Microbiome data was analyzed after applying the logarithmic transformation."}, "[3]": {"tested_on": "differentiated N1E-115 cells", "test": "FRAP of mCherry-Tau (Tau-MT interaction)", "type": "cell-based, mouse", "method": "Cell culture—Mouse neuroblastoma NIE-115 cells were maintained in Dulbecco's modified Eagle's medium, 10% fetal bovine serum, 2 mM glutamine and 100 U ml—1 penicillin, […] ml—1 streptomycin (Biological Industries, Beit Haemek, Israel). The cells were incubated in 95% air/5% CO2 in a humidified incubator at 37° C.\nCell differentiation and co-transfection of overexpression plasmids—Cultured NIE-115 cells were plated on 35 mm dishes (81156, 60μ-Dish, Ibidi, Martinsried, Germany) at a concentration of 1.25×10^4 cells per dish and then were differentiated with reduced fetal bovine serum (2%) and DMSO (1.25%) containing medium for 5 days before transfection. 48 hrs before experiments N1E-115 cells were co-transfected with 1 μg EB3-RFP or mCherry-Tau (3R) plasmid with or without 2 μg of plasmids, coding to GFP conjugated to full-length human ADNP, or ADNP carried mutations. 1:3 ratios between total amount of transfected DNA and transfection reagent were used according to manufacture guidance (Lipofectamine2000, Thermo Fisher Scientific, Waltham, MA, USA) in all subsequent experiments.\nFluorescence recovery after photobleaching (FRAP)—Differentiated NIE-115 cells were transfected with mCherry-Tau with or without GFP-conjugated to full-length ADNP or mutated ADNP, and imaged 48 hrs after transfection. An ROI for photobleaching was drowned in the proximal cell branches. mCherry-Tau was bleached with a […], and fluorescence recovery was collected within wavelengths of 610-650 nm. 80 images were taken every 0.74 sec immediately after bleaching. After FRAP imaging all samples were also treated with NAP in final concentrations of 10^−12 M, and after 4 hrs time-lapse imaging was done again under the same conditions. FRAP imaging for assessment difference between NAP and SKIP (SEQ ID NO: 21) activity was performed after an hour of ZnCl2 treatment (400 μM final concentration; Sigma, Rehovot, Israel) with or without NAP/SKIP (10^−12 M final concentration). Fluorescence signals were quantified with Fiji, obtained data were normalized with easyFRAP [82, 83] and FRAP recovery curves were fitted by a one-phase exponential association function by GraphPad Prism6 (GraphPad Software, Inc., La Jolla, CA, USA) while samples with R^2<0.9 were excluded.\nNext, the effect of full-length/truncated ADNP forms with or without NAP treatment on Tau-MT interaction was examined by fluorescence recovery after photobleaching (FRAP) (FIGS. 8A-C). FRAP was performed with mCherry-tagged Tau protein (FIG. 8A). […] Therefore, the immobile mCherry-Tau fraction reflects the rate of Tau association with MTs."}},
  "data": [
    {"compound": "CC[C@H](C)[C@H](NC(=O)[C@H](CO)NC(=O)[C@@H](NC(=O)[C@@H]1CCCN1C(=O)[C@H](C)NC(=O)[C@@H](N)CC(N)=O)C(C)C)C(=O)N1CCC[C@H]1C(=O)N[C@@H](CCC(N)=O)C(=O)O", "note": "[NAP, NAPVSIPQ]", "values": [
      {"measurement": "Odor discrimination", "setting": "[1]; Tyr mice, daily intranasal NAP, data not shown", "result": "NAP reversal in females"},
      {"measurement": "NAP efficacy: cognitive impairments, behavioral deficits", "setting": "[1]; Tyr mouse (odor), first symbol of cell", "result": "+(odor)/+(8)"},
      {"measurement": "Behavioral, motor, social and sensory traits", "setting": "[1]; WT mice, data not shown", "result": "varied minor effects"},
      {"measurement": "NAP efficacy: microbiota", "setting": "[2]; Tyr mouse, first symbol of cell", "result": "+/+"},
      {"measurement": "EubV3, BIF, Lacto, Entero loads", "setting": "[2]; WT mice", "result": "no effect on WT mice"},
      {"measurement": "Clostridium coccoides group (gCcoc) and Mouse intestinal Bacteroides (MIB) loads", "setting": "[2]; WT mice, data not shown", "result": "other varying effects"},
      {"measurement": "Bifidobacterium genus (BIF) load", "setting": "[2]; female Tyr mice", "result": "NAP correction"},
      {"measurement": "Total eubacterial load (EubV3)", "setting": "[2]; male Tyr mice", "result": "corrected with NAP treatment"},
      {"measurement": "Tau-MT interaction (immobile mCherry-Tau fraction)", "setting": "[3]; cells expressing ADNP p.Glu830synfs*83, 10^−12 M, 4 hrs", "result": "significantly increased"},
      {"measurement": "Tau-MT interaction (Tau immobile fraction)", "setting": "[3]; cells expressing ADNP p.Lys408Valfs*31 SDM, 10^−12 M, 4 hrs", "result": "prevented by NAP treatment"},
      {"measurement": "Tau-MT interaction (immobile mCherry-Tau fraction)", "setting": "[3]; cells expressing ADNP p.Ser404*, 10^−12 M, 4 hrs", "result": "significantly increased"},
      {"measurement": "Tau immobile fraction under zinc", "setting": "[3]; zinc 400 μM, 1 h, together with peptide 10^−12 M", "result": "excessive impact"}
    ]}
  ]
}
